The text below walks through data of patent publication US6562830B1, “Method of treating a patient having precancerous lesions with phenyl quinazolinone derivatives” (Cell Pathways, Inc., priority 1999, dated 2003).

Regarding `CCCOc1ccccc1-c1nc2cc(N)ccc2c(=O)[nH]1` [Example 26, 7-Amino-2-(2-Propoxyphenyl)-4(3H)-quinazolinone], the melting point was 185 °C.

In turn, `CCCOc1ccccc1-c1nc2cc(NC)ccc2c(=O)[nH]1` [Example 27, 7-Methylamino-2-(2-Propoxyphenyl)-4(3H)-quinazolinone] registered a melting point of 204 to 205 °C.
